Experimental data from patent US10131652B2, “Pyrimidinyloxy benzene derivatives as herbicides” (E. I. DU PONT DE NEMOURS AND COMPANY, priority 2014, dated 2018).
Like-named read-outs stand apart in the source and are kept apart here.

How the values were obtained:
Experiment in all cases: Test E pre-/postemergence plant response
Format in all cases: in vivo
kochia (Kochia scoparia) = conditions: Bassia scoparia, scale 0 to 100, read-out: Plant response rating, Kochia; for pest or weed control at 16 g/ha: 16 g ai/ha; for pest or weed control at 31 g/ha: 31 g ai/ha; for pest or weed control at 62 g/ha: 62 g ai/ha; for pest or weed control at 125 g/ha: 125 g ai/ha
How it was run: (§1)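 Visual scores on a 0–100 scale (100 = complete control) were assigned against untreated controls 7–21 days after treatment in a controlled environment. Compounds, formulated with solvent plus surfactant, were applied to pre-emergence silt-loam sowings or to 1- to 4-leaf plants (2–18 cm) in potting medium.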

[1] = system: galium (catchweed bedstraw, Galium aparine); conditions: scale 0 to 100, read-out: Plant response rating, Galium; for pest or weed control at 16 g/ha: 16 g ai/ha; for pest or weed control at 31 g/ha: 31 g ai/ha; for pest or weed control at 62 g/ha: 62 g ai/ha; for pest or weed control at 125 g/ha: 125 g ai/ha
How it was run: as §1

[2] = system: windgrass (Apera spica-venti); conditions: scale 0 to 100, read-out: Plant response rating, Windgrass; for pest or weed control at 16 g/ha: 16 g ai/ha; for pest or weed control at 62 g/ha: 62 g ai/ha; for pest or weed control at 125 g/ha: 125 g ai/ha
How it was run: as §1

[3] = system: bluegrass (annual bluegrass, Poa annua); conditions: scale 0 to 100, read-out: Plant response rating, Bluegrass; for pest or weed control at 16 g/ha: 16 g ai/ha; for pest or weed control at 31 g/ha: 31 g ai/ha; for pest or weed control at 62 g/ha: 62 g ai/ha; for pest or weed control at 125 g/ha: 125 g ai/ha
How it was run: as §1

[4] = system: wild buckwheat (Polygonum convolvulus); conditions: Fallopia convolvulus, scale 0 to 100, read-out: Plant response rating, Buckwheat, Wild; for pest or weed control at 16 g/ha: 16 g ai/ha; for pest or weed control at 31 g/ha: 31 g ai/ha; for pest or weed control at 62 g/ha: 62 g ai/ha; for pest or weed control at 125 g/ha: 125 g ai/ha
How it was run: as §1

[5] = system: oilseed rape (Brassica napus); conditions: scale 0 to 100, read-out: Plant response rating, Oilseed Rape; for plant injury at 16 g/ha: 16 g ai/ha; for plant injury at 31 g/ha: 31 g ai/ha; for plant injury at 62 g/ha: 62 g ai/ha; for plant injury at 125 g/ha: 125 g ai/ha
How it was run: as §1

[6] = system: Italian ryegrass (Lolium multiflorum); conditions: scale 0 to 100, read-out: Plant response rating, Ryegrass, Italian; for pest or weed control at 16 g/ha: 16 g ai/ha; for pest or weed control at 31 g/ha: 31 g ai/ha; for pest or weed control at 62 g/ha: 62 g ai/ha; for pest or weed control at 125 g/ha: 125 g ai/ha
How it was run: as §1

[7] = system: chickweed (common chickweed, Stellaria media); conditions: scale 0 to 100, read-out: Plant response rating, Chickweed; for pest or weed control at 16 g/ha: 16 g ai/ha; for pest or weed control at 31 g/ha: 31 g ai/ha; for pest or weed control at 62 g/ha: 62 g ai/ha; for pest or weed control at 125 g/ha: 125 g ai/ha
How it was run: as §1

[8] = system: wild radish (Raphanus raphanistrum); conditions: scale 0 to 100, read-out: Plant response rating, Radish, Wild; for pest or weed control at 16 g/ha: 16 g ai/ha; for pest or weed control at 31 g/ha: 31 g ai/ha; for pest or weed control at 62 g/ha: 62 g ai/ha; for pest or weed control at 125 g/ha: 125 g ai/ha
How it was run: as §1

[9] = system: winter barley (Hordeum vulgare); conditions: scale 0 to 100, read-out: Plant response rating, Barley, Winter; for plant injury at 16 g/ha: 16 g ai/ha; for plant injury at 31 g/ha: 31 g ai/ha; for plant injury at 62 g/ha: 62 g ai/ha; for plant injury at 125 g/ha: 125 g ai/ha
How it was run: as §1

[10] = system: downy bromegrass (Bromus tectorum); conditions: scale 0 to 100, read-out: Plant response rating, Bromegrass, Downy; for pest or weed control at 16 g/ha: 16 g ai/ha; for pest or weed control at 31 g/ha: 31 g ai/ha; for pest or weed control at 62 g/ha: 62 g ai/ha; for pest or weed control at 125 g/ha: 125 g ai/ha
How it was run: as §1

Fc1cccc(Oc2ncc(Cl)cn2)c1-c1cc(C(F)F)no1 [Compound 144, 5-chloro-2-[2-[3-(difluoromethyl)-5-isoxazolyl]-3-fluorophenoxy]pyrimidine]
pest or weed control at 16 g/ha (kochia (Kochia scoparia); post-emergence, Postemergence): 100%
pest or weed control at 31 g/ha (kochia (Kochia scoparia); post-emergence, Postemergence): 100%
pest or weed control at 62 g/ha (kochia (Kochia scoparia); post-emergence, Postemergence): 100%
pest or weed control at 125 g/ha (kochia (Kochia scoparia); post-emergence, Postemergence): 100%
pest or weed control at 16 g/ha (kochia (Kochia scoparia); pre-emergence, Preemergence): 98%
pest or weed control at 31 g/ha (kochia (Kochia scoparia); pre-emergence, Preemergence): 100%
pest or weed control at 62 g/ha (kochia (Kochia scoparia); pre-emergence, Preemergence): 100%
pest or weed control at 125 g/ha (kochia (Kochia scoparia); pre-emergence, Preemergence): 100%
pest or weed control at 16 g/ha ([1]; post-emergence, Postemergence): 80%
pest or weed control at 31 g/ha ([1]; post-emergence, Postemergence): 95%
pest or weed control at 62 g/ha ([1]; post-emergence, Postemergence): 100%
pest or weed control at 125 g/ha ([1]; post-emergence, Postemergence): 100%
pest or weed control at 16 g/ha ([1]; pre-emergence, Preemergence): 20%
pest or weed control at 31 g/ha ([1]; pre-emergence, Preemergence): 70%
pest or weed control at 62 g/ha ([1]; pre-emergence, Preemergence): 100%
pest or weed control at 125 g/ha ([1]; pre-emergence, Preemergence): 100%
pest or weed control at 16 g/ha ([2]; post-emergence, Postemergence): 10%
pest or weed control at 31 g/ha ([2]; post-emergence, 31 g ai/ha, Postemergence): 20%
pest or weed control at 62 g/ha ([2]; post-emergence, Postemergence): 25%
pest or weed control at 125 g/ha ([2]; post-emergence, Postemergence): 55%
pest or weed control at 16 g/ha ([2]; pre-emergence, Preemergence): 10%
pest or weed control at 62 g/ha ([2]; pre-emergence, Preemergence): 100%
pest or weed control at 125 g/ha ([2]; pre-emergence, Preemergence): 100%
pest or weed control at 16 g/ha ([3]; post-emergence, Postemergence): 25%
pest or weed control at 31 g/ha ([3]; post-emergence, Postemergence): 45%
pest or weed control at 62 g/ha ([3]; post-emergence, Postemergence): 55%
pest or weed control at 125 g/ha ([3]; post-emergence, Postemergence): 65%
pest or weed control at 16 g/ha ([3]; pre-emergence, Preemergence): 10%
pest or weed control at 31 g/ha ([3]; pre-emergence, Preemergence): 15%
pest or weed control at 62 g/ha ([3]; pre-emergence, Preemergence): 40%
pest or weed control at 125 g/ha ([3]; pre-emergence, Preemergence): 85%
pest or weed control at 16 g/ha ([4]; post-emergence, Postemergence): 100%
pest or weed control at 31 g/ha ([4]; post-emergence, Postemergence): 95%
pest or weed control at 62 g/ha ([4]; post-emergence, Postemergence): 100%
pest or weed control at 125 g/ha ([4]; post-emergence, Postemergence): 100%
pest or weed control at 16 g/ha ([4]; pre-emergence, Preemergence): 85%
pest or weed control at 31 g/ha ([4]; pre-emergence, Preemergence): 100%
pest or weed control at 62 g/ha ([4]; pre-emergence, Preemergence): 100%
pest or weed control at 125 g/ha ([4]; pre-emergence, Preemergence): 100%
plant injury at 16 g/ha ([5]; post-emergence, Postemergence): 100%
plant injury at 31 g/ha ([5]; post-emergence, Postemergence): 100%
plant injury at 62 g/ha ([5]; post-emergence, Postemergence): 100%
plant injury at 125 g/ha ([5]; post-emergence, Postemergence): 100%
plant injury at 16 g/ha ([5]; pre-emergence, Preemergence): 35%
plant injury at 31 g/ha ([5]; pre-emergence, Preemergence): 80%
plant injury at 62 g/ha ([5]; pre-emergence, Preemergence): 100%
plant injury at 125 g/ha ([5]; pre-emergence, Preemergence): 100%
pest or weed control at 16 g/ha ([6]; post-emergence, Postemergence): 5%
pest or weed control at 31 g/ha ([6]; post-emergence, Postemergence): 15%
pest or weed control at 62 g/ha ([6]; post-emergence, Postemergence): 40%
pest or weed control at 125 g/ha ([6]; post-emergence, Postemergence): 65%
pest or weed control at 16 g/ha ([6]; pre-emergence, Preemergence): 10%
pest or weed control at 31 g/ha ([6]; pre-emergence, Preemergence): 25%
pest or weed control at 62 g/ha ([6]; pre-emergence, Preemergence): 70%
pest or weed control at 125 g/ha ([6]; pre-emergence, Preemergence): 100%
pest or weed control at 16 g/ha ([7]; post-emergence, Postemergence): 85%
pest or weed control at 31 g/ha ([7]; post-emergence, Postemergence): 100%
pest or weed control at 62 g/ha ([7]; post-emergence, Postemergence): 100%
pest or weed control at 125 g/ha ([7]; post-emergence, Postemergence): 100%
pest or weed control at 16 g/ha ([7]; pre-emergence, Preemergence): 100%
pest or weed control at 31 g/ha ([7]; pre-emergence, Preemergence): 100%
pest or weed control at 62 g/ha ([7]; pre-emergence, Preemergence): 100%
pest or weed control at 125 g/ha ([7]; pre-emergence, Preemergence): 100%
pest or weed control at 16 g/ha ([8]; post-emergence, Postemergence): 100%
pest or weed control at 31 g/ha ([8]; post-emergence, Postemergence): 100%
pest or weed control at 62 g/ha ([8]; post-emergence, Postemergence): 100%
pest or weed control at 125 g/ha ([8]; post-emergence, Postemergence): 100%
pest or weed control at 16 g/ha ([8]; pre-emergence, Preemergence): 80%
pest or weed control at 31 g/ha ([8]; pre-emergence, Preemergence): 80%
pest or weed control at 62 g/ha ([8]; pre-emergence, Preemergence): 100%
pest or weed control at 125 g/ha ([8]; pre-emergence, Preemergence): 100%
plant injury at 16 g/ha ([9]; post-emergence, Postemergence): 30%
plant injury at 31 g/ha ([9]; post-emergence, Postemergence): 20%
plant injury at 62 g/ha ([9]; post-emergence, Postemergence): 35%
plant injury at 125 g/ha ([9]; post-emergence, Postemergence): 45%
plant injury at 16 g/ha ([9]; pre-emergence, Preemergence): 30%
plant injury at 31 g/ha ([9]; pre-emergence, Preemergence): 35%
plant injury at 62 g/ha ([9]; pre-emergence, Preemergence): 55%
plant injury at 125 g/ha ([9]; pre-emergence, Preemergence): 55%
pest or weed control at 16 g/ha ([10]; post-emergence, Postemergence): 25%
pest or weed control at 31 g/ha ([10]; post-emergence, Postemergence): 35%
pest or weed control at 62 g/ha ([10]; post-emergence, Postemergence): 40%
pest or weed control at 125 g/ha ([10]; post-emergence, Postemergence): 75%
pest or weed control at 16 g/ha ([10]; pre-emergence, Preemergence): 10%
pest or weed control at 31 g/ha ([10]; pre-emergence, Preemergence): 10%
pest or weed control at 62 g/ha ([10]; pre-emergence, Preemergence): 35%
pest or weed control at 125 g/ha ([10]; pre-emergence, Preemergence): 55%
